“Also recorded” adds a separate entry of the source.
Legend:
ER = target: T1, ER (Homo sapiens, UniProt P03372); assay: Hormone-dependent growth with inteinless MBP-ER-TS fusion
T1 sequence (P03372 301-553): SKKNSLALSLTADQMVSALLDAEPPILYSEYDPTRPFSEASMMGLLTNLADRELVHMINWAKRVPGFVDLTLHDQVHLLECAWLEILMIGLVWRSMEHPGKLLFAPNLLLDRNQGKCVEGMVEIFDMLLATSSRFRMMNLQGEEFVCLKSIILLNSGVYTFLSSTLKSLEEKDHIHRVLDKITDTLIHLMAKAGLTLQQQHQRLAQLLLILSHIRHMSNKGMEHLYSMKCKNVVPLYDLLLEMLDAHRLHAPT

[1] = target: T2, human estrogen receptor alpha ligand-binding domain (Homo sapiens, UniProt P03372); assay: Detection of antagonism: pMIT::ER* cells grown in the presence of E2 plus increasing concentrations of test compound; type: cell-based; settings: 10 micromolar E2, liquid thymineless medium, 34 degrees Celsius, OD600 at 15 hours
T2 construct: expressed in transfected cells; host or cells: E. coli D1210(delta)thyA carrying pMIT::ER*
T2 sequence (P03372 301-553): T1 sequence (P03372 301-553)
Experimental: FIG. 4 is a graph showing antagonism of estrogen agonists and antagonists. […] Relative cell growth was determined by OD600 at 15 hours in 5 milliliter cultures of liquid thymineless medium at 34 degrees Celsius.
(§1) All experiments were carried out at least in duplicate.

[2] = target: T3, human thyroid hormone receptor beta ligand-binding domain (Homo sapiens, UniProt P10828); assay: Paper disk growth test of cells harboring pMIT::TR* on thymineless agar plates; type: cell-based; settings: 30 degrees Celsius, approximately 50 hours, disks saturated in 10 millimolar solutions
T3 construct: expressed in transfected cells; host or cells: E. coli D1210(delta)thyA carrying pMIT::TR*
T3 sequence (P10828 203-461): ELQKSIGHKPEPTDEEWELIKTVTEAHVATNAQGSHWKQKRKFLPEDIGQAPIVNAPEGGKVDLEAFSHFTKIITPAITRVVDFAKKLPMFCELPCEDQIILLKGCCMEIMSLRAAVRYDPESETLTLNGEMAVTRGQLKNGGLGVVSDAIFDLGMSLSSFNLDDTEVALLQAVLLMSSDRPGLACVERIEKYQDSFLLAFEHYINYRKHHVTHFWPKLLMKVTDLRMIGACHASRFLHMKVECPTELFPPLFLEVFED
Experimental: (§2) FIG. 2 consists of FIGS. 2A, 2B, 2C, and 2D. FIG. 2A is a graph that depicts ligand effects on the growth phenotypes of E. coli D1210(delta)thyA cells carrying the pMIT::ER* vector in 50 milliliter cultures of liquid thymineless medium at 34 degrees Celsius. […] Varying concentrations of estrogen were dissolved in dimethylsulfoxide to allow precise control of dosing. Experiments were carried out in duplicate and errors bars represent one standard deviation from the mean value. FIG. 2C is a graph that depicts ligand effects on the growth phenotypes of cells harboring pMIT::TR* in 50 milliliter cultures of liquid thymineless medium at 34 degrees Celsius. FIG. 2D is an image that depicts ligand effects on the growth phenotypes of cells harboring pMIT::TR* and incubated on thymineless agar plates at 30 degrees Celsius for approximately 50 hours. […] In the experiment corresponding to FIG. 2D, the paper disks applied were allowed to saturate in 10 millimolar solutions of estrogen and thyroid hormone prior to applying them to the medium.
In this case a lawn of cells was plated onto thymineless medium and exposed to small paper disks impregnated with either estrogen or thyroid hormone.

[3] = target: T2, human estrogen receptor alpha ligand-binding domain; assay: Growth phenotype of E. coli D1210(delta)thyA cells carrying pMIT::ER* in liquid thymineless medium; type: cell-based; settings: 34 degrees Celsius, ligand 10 micromolar
Experimental: as §2, §1

[4] = target: T3, human thyroid hormone receptor beta ligand-binding domain; assay: Growth phenotype of E. coli D1210(delta)thyA cells carrying pMIT::TR* in liquid thymineless medium; type: cell-based; settings: 34 degrees Celsius, ligand 10 micromolar
Experimental: as §2, §1

Row | Molecule | behaviour (agonist/antagonist) with inteinless fusion (ER) | effect on cell growth when combined with estrogen agonist [1] | colony formation around ligand-impregnated paper disk [2] | ligand effect on cell growth [3] | ligand effect on cell growth [4]
1 | 4-hydroxytamoxifen | estrogen super-agonist | inhibitory effects |  |  | 
2 | 17-beta-estradiol [E2] |  |  | no colonies could be observed |  | 
3 | N[C@@H](Cc1ccc(Oc2cc(I)c(O)c(I)c2)c(I)c1)C(=O)O [T3, 3,3′,5′-triiodo-L-thyronine] |  |  | clear colonies were observed | insensitive; also recorded: enhance growth only in cell cultures expressing the TR fusion | able to grow only in the presence; also recorded: able to enhance growth
4 | CC(=O)[C@H]1CC[C@H]2[C@@H]3CCC4=CC(=O)CC[C@]4(C)[C@H]3CC[C@]12C [progesterone] |  |  |  | no effect on cell growth | no effect on cell growth

From patent US7592144B2, “Bacterial ligand-binding sensor” (The Trustees of Princeton University, priority 2005, dated 2009)
